Source: publication PMC9971899, “Identification and structural analysis of a carbohydrate-binding module specific to alginate, a representative of a new family, CBM96” (The Journal of Biological Chemistry, 2022)
“And” between values parts separate entries of the source, which are not always exact repeats. Equal entries are not always repeated.

Assays:
TM6-N4 [1] = target: T1, TM6-N4 (Defluviitalea phaphyphila, UniProt A0A4Y5UXE1); experiment: Isothermal titration calorimetry (MicroCal PEAQ-ITC) of 20 uM TM6-N4 with 200 uM oligoalginate in 20 mM Tris-HCl pH 7.0 without NaCl at 25 °C, one-site binding model, triplicate for most ligands.; settings: SD, n = 3
T1 construct: gene Dp0100; TM6-N4 truncation of Dp0100 (187 amino acids, within TM6 segment 1020-1446, without CBM35), His tag, produced in E. coli BL21 (DE3); monomer, Ca2+ in crystal structure
Description: (§1) To characterize the binding of TM6-N4 to alginate, isothermal titration calorimetry (ITC) experiments were carried out at 25 °C and pH 7.0, with alginate and oligoalginate standards including G3, G4, G5, G6, G7, M3, M5, M6, and M7 as substrate and TM6-N4 as the enzyme. […] Nevertheless, G3 produced a profile of CBM–ligand interaction (Fig. 2A). It is thus likely that the binding sites of TM6-N4 required at least three uronic acid units to yield stable binding complexes. […] These discrepancies may reflect the fact that one alginate chain has accommodated several protein molecules and the fact of the thermodynamic instability of the long alginate chain.
(§2) Figure 2 Thermograms (upper panels) and binding isotherms with theoretical fits (lower panels) obtained for the binding. G3 (A), G4 (B), G5 (C), G6 (D), G7 (E), M3 (F), M5 (G), M6 (H), M7 (I), and alginate (J) to TM6-N4. The buffer used was 20 mM Tris–HCl buffer, pH 7.0. Protein concentration was 20 μM for TM6-N4.
(§3) The proteins were dialyzed extensively against buffer with 20 mM Tris–HCl (pH 7.0) without NaCl and adjusted concentration to 20 μM, and the oligosaccharide ligands (purity ≥95%; Qingdao BZ Oligo Biotech Co Ltd) or alginate ligands (viscosity >0.02 Pa·s, 1% alginate in H2O at 25 °C) were dissolved in the same buffer to minimize heats of dilution with a concentration of 200 μM. To avoid bubble formation, all the samples were degassed by centrifugation at 12,000 rpm/10 min. Calorimetric titration was performed with MicroCal PEAQ-ITC (Malvern Panalytical). During a titration experiment, the protein sample was stirred at a speed of 750 rpm and kept a constant temperature of 25 °C, and the titration needle was filled with 80 μl oligosaccharide or alginate ligand. Titrations were completed after 19 injections (each 3 μl) at an interval of 150 s. The data were analyzed by using the one-site binding model in the MicroCal PEAQ-ITC Analysis software. The fitted data yielded the dissociation constant (Kd), the number of binding sites on the protein (n), and the enthalpy of binding (ΔH). Other thermodynamic parameters can be calculated by using the standard thermodynamic equation ΔG = −RTln Ka = ΔH-TΔS. Titrations were carried out in triplicate for most ligands, and the errors are the SD of the mean of these replicates.

TM6-N4 [2] = experiment: Isothermal titration calorimetry of alginate and oligoalginate binding to TM6-N4; parameters: species or system Defluviitalea phaphyphila; settings: ITC, 25 °C, pH 7.0; for TΔS: calculated from ΔG = ΔH-TΔS; for ΔG (binding free energy change): calculated from ΔG = −RTln Ka
Description: as §1, §2, §3

SMILES: O=C(O)[C@@H]1O[C@@H](O[C@H]2[C@H](O)[C@H](O)[C@H](O[C@H]3[C@H](O)[C@H](O)C(O)O[C@H]3C(=O)O)O[C@H]2C(=O)O)[C@@H](O)[C@@H](O)[C@@H]1O (stereo partly drawn) [G3, alpha-L-guluronate trisaccharide (triguluronate)]
- Kd (TM6-N4 [1]): 3100 ± 100 nM

SMILES: O=C(O)[C@@H]1O[C@@H](O[C@H]2[C@H](O)[C@H](O)[C@H](O[C@H]3[C@H](O)[C@H](O)C(O)O[C@H]3C(=O)O)O[C@H]2C(=O)O)[C@@H](O)[C@@H](O)[C@@H]1O (some centres unmarked) [G3]
- ΔH (TM6-N4 [2]): -15.1 ± 3.3 kcal/mol
- TΔS (TM6-N4 [2]): -7.6 kcal/mol
- ΔG (binding free energy change) (TM6-N4 [2]): -7.5 kcal/mol and -7.5 ± 0.1 kcal/mol

SMILES: O=C(O)[C@@H]1O[C@@H](O[C@H]2[C@H](O)[C@H](O)[C@H](O[C@H]3[C@H](O)[C@H](O)[C@H](O[C@H]4[C@H](O)[C@H](O)C(O)O[C@H]4C(=O)O)O[C@H]3C(=O)O)O[C@H]2C(=O)O)[C@@H](O)[C@@H](O)[C@@H]1O (stereo partly drawn) [G4, alpha-L-guluronate tetrasaccharide (tetraguluronate)]
- Kd (TM6-N4 [1]): 600 ± 100 nM

SMILES: O=C(O)[C@@H]1O[C@@H](O[C@H]2[C@H](O)[C@H](O)[C@H](O[C@H]3[C@H](O)[C@H](O)[C@H](O[C@H]4[C@H](O)[C@H](O)C(O)O[C@H]4C(=O)O)O[C@H]3C(=O)O)O[C@H]2C(=O)O)[C@@H](O)[C@@H](O)[C@@H]1O (some centres unmarked) [G4]
- ΔH (TM6-N4 [2]): -7.3 ± 0.2 kcal/mol
- TΔS (TM6-N4 [2]): 1.1 kcal/mol
- ΔG (binding free energy change) (TM6-N4 [2]): -8.4 kcal/mol and -8.4 ± 0.1 kcal/mol

SMILES: O=C(O)[C@@H]1O[C@@H](O[C@H]2[C@H](O)[C@H](O)[C@H](O[C@H]3[C@H](O)[C@H](O)[C@H](O[C@H]4[C@H](O)[C@H](O)[C@H](O[C@H]5[C@H](O)[C@H](O)C(O)O[C@H]5C(=O)O)O[C@H]4C(=O)O)O[C@H]3C(=O)O)O[C@H]2C(=O)O)[C@@H](O)[C@@H](O)[C@@H]1O (stereo partly drawn) [G5, alpha-L-guluronate pentasaccharide (pentaguluronate)]
- Kd (TM6-N4 [1]): 500 ± 100 nM

SMILES: O=C(O)[C@@H]1O[C@@H](O[C@H]2[C@H](O)[C@H](O)[C@H](O[C@H]3[C@H](O)[C@H](O)[C@H](O[C@H]4[C@H](O)[C@H](O)[C@H](O[C@H]5[C@H](O)[C@H](O)C(O)O[C@H]5C(=O)O)O[C@H]4C(=O)O)O[C@H]3C(=O)O)O[C@H]2C(=O)O)[C@@H](O)[C@@H](O)[C@@H]1O (some centres unmarked) [G5]
- ΔH (TM6-N4 [2]): -12.3 ± 0.4 kcal/mol
- TΔS (TM6-N4 [2]): -3.6 kcal/mol
- ΔG (binding free energy change) (TM6-N4 [2]): -8.6 kcal/mol and -8.6 ± 0.1 kcal/mol

SMILES: O=C(O)[C@@H]1O[C@@H](O[C@H]2[C@H](O)[C@H](O)[C@H](O[C@H]3[C@H](O)[C@H](O)[C@H](O[C@H]4[C@H](O)[C@H](O)[C@H](O[C@H]5[C@H](O)[C@H](O)[C@H](O[C@H]6[C@H](O)[C@H](O)C(O)O[C@H]6C(=O)O)O[C@H]5C(=O)O)O[C@H]4C(=O)O)O[C@H]3C(=O)O)O[C@H]2C(=O)O)[C@@H](O)[C@@H](O)[C@@H]1O (stereo partly drawn) [G6, alpha-L-guluronate hexasaccharide (hexaguluronate)]
- Kd (TM6-N4 [1]): 20 ± 20 nM

SMILES: O=C(O)[C@@H]1O[C@@H](O[C@H]2[C@H](O)[C@H](O)[C@H](O[C@H]3[C@H](O)[C@H](O)[C@H](O[C@H]4[C@H](O)[C@H](O)[C@H](O[C@H]5[C@H](O)[C@H](O)[C@H](O[C@H]6[C@H](O)[C@H](O)C(O)O[C@H]6C(=O)O)O[C@H]5C(=O)O)O[C@H]4C(=O)O)O[C@H]3C(=O)O)O[C@H]2C(=O)O)[C@@H](O)[C@@H](O)[C@@H]1O (some centres unmarked) [G6]
- ΔH (TM6-N4 [2]): -8.6 ± 0.4 kcal/mol
- TΔS (TM6-N4 [2]): 1.9 kcal/mol
- ΔG (binding free energy change) (TM6-N4 [2]): -10.5 kcal/mol and -10.5 ± 0.1 kcal/mol

SMILES: O=C(O)[C@@H]1O[C@@H](O[C@H]2[C@H](O)[C@H](O)[C@H](O[C@H]3[C@H](O)[C@H](O)[C@H](O[C@H]4[C@H](O)[C@H](O)[C@H](O[C@H]5[C@H](O)[C@H](O)[C@H](O[C@H]6[C@H](O)[C@H](O)[C@H](O[C@H]7[C@H](O)[C@H](O)C(O)O[C@H]7C(=O)O)O[C@H]6C(=O)O)O[C@H]5C(=O)O)O[C@H]4C(=O)O)O[C@H]3C(=O)O)O[C@H]2C(=O)O)[C@@H](O)[C@@H](O)[C@@H]1O (stereo partly drawn) [G7, alpha-L-guluronate heptasaccharide (heptaguluronate)]
- Kd (TM6-N4 [1]): 300 ± 70 nM

SMILES: O=C(O)[C@@H]1O[C@@H](O[C@H]2[C@H](O)[C@H](O)[C@H](O[C@H]3[C@H](O)[C@H](O)[C@H](O[C@H]4[C@H](O)[C@H](O)[C@H](O[C@H]5[C@H](O)[C@H](O)[C@H](O[C@H]6[C@H](O)[C@H](O)[C@H](O[C@H]7[C@H](O)[C@H](O)C(O)O[C@H]7C(=O)O)O[C@H]6C(=O)O)O[C@H]5C(=O)O)O[C@H]4C(=O)O)O[C@H]3C(=O)O)O[C@H]2C(=O)O)[C@@H](O)[C@@H](O)[C@@H]1O (some centres unmarked) [G7]
- ΔH (TM6-N4 [2]): -14.2 ± 0.4 kcal/mol
- TΔS (TM6-N4 [2]): -5.4 kcal/mol
- ΔG (binding free energy change) (TM6-N4 [2]): -8.9 kcal/mol and -8.9 ± 0.1 kcal/mol

SMILES: O=C(O)[C@H]1O[C@@H](O[C@H]2[C@H](O)[C@H](O)[C@H](O[C@H]3[C@H](O)[C@H](O)[C@H](O[C@H]4[C@H](O)[C@H](O)[C@H](O[C@H]5[C@H](O)[C@H](O)C(O)O[C@@H]5C(=O)O)O[C@@H]4C(=O)O)O[C@@H]3C(=O)O)O[C@@H]2C(=O)O)[C@@H](O)[C@@H](O)[C@@H]1O (stereo partly drawn) [M5, mannuronate pentasaccharide (beta-D-mannuronate pentasaccharide)]
- Kd (TM6-N4 [1]): 1200 ± 600 nM

SMILES: O=C(O)[C@H]1O[C@@H](O[C@H]2[C@H](O)[C@H](O)[C@H](O[C@H]3[C@H](O)[C@H](O)[C@H](O[C@H]4[C@H](O)[C@H](O)[C@H](O[C@H]5[C@H](O)[C@H](O)C(O)O[C@@H]5C(=O)O)O[C@@H]4C(=O)O)O[C@@H]3C(=O)O)O[C@@H]2C(=O)O)[C@@H](O)[C@@H](O)[C@@H]1O (some centres unmarked) [M5, mannuronate pentasaccharide]
- ΔH (TM6-N4 [2]): -8.6 ± 1.2 kcal/mol
- TΔS (TM6-N4 [2]): -0.6 kcal/mol
- ΔG (binding free energy change) (TM6-N4 [2]): -8.1 kcal/mol and -8.1 ± 0.1 kcal/mol

SMILES: O=C(O)[C@H]1O[C@@H](O[C@H]2[C@H](O)[C@H](O)[C@H](O[C@H]3[C@H](O)[C@H](O)[C@H](O[C@H]4[C@H](O)[C@H](O)[C@H](O[C@H]5[C@H](O)[C@H](O)[C@H](O[C@H]6[C@H](O)[C@H](O)C(O)O[C@@H]6C(=O)O)O[C@@H]5C(=O)O)O[C@@H]4C(=O)O)O[C@@H]3C(=O)O)O[C@@H]2C(=O)O)[C@@H](O)[C@@H](O)[C@@H]1O (stereo partly drawn) [M6, beta-D-mannuronate hexasaccharide (hexamannuronate)]
- Kd (TM6-N4 [1]): 60 ± 60 nM

SMILES: O=C(O)[C@H]1O[C@@H](O[C@H]2[C@H](O)[C@H](O)[C@H](O[C@H]3[C@H](O)[C@H](O)[C@H](O[C@H]4[C@H](O)[C@H](O)[C@H](O[C@H]5[C@H](O)[C@H](O)[C@H](O[C@H]6[C@H](O)[C@H](O)C(O)O[C@@H]6C(=O)O)O[C@@H]5C(=O)O)O[C@@H]4C(=O)O)O[C@@H]3C(=O)O)O[C@@H]2C(=O)O)[C@@H](O)[C@@H](O)[C@@H]1O (some centres unmarked) [M6]
- ΔH (TM6-N4 [2]): -3.5 ± 0.3 kcal/mol
- TΔS (TM6-N4 [2]): 6.4 kcal/mol
- ΔG (binding free energy change) (TM6-N4 [2]): -9.9 kcal/mol and -9.9 ± 0.1 kcal/mol

SMILES: O=C(O)[C@H]1O[C@@H](O[C@H]2[C@H](O)[C@H](O)[C@H](O[C@H]3[C@H](O)[C@H](O)[C@H](O[C@H]4[C@H](O)[C@H](O)[C@H](O[C@H]5[C@H](O)[C@H](O)[C@H](O[C@H]6[C@H](O)[C@H](O)[C@H](O[C@H]7[C@H](O)[C@H](O)C(O)O[C@@H]7C(=O)O)O[C@@H]6C(=O)O)O[C@@H]5C(=O)O)O[C@@H]4C(=O)O)O[C@@H]3C(=O)O)O[C@@H]2C(=O)O)[C@@H](O)[C@@H](O)[C@@H]1O (stereo partly drawn) [M7, beta-D-mannuronate heptasaccharide (heptamannuronate)]
- Kd (TM6-N4 [1]): 200 ± 100 nM

SMILES: O=C(O)[C@H]1O[C@@H](O[C@H]2[C@H](O)[C@H](O)[C@H](O[C@H]3[C@H](O)[C@H](O)[C@H](O[C@H]4[C@H](O)[C@H](O)[C@H](O[C@H]5[C@H](O)[C@H](O)[C@H](O[C@H]6[C@H](O)[C@H](O)[C@H](O[C@H]7[C@H](O)[C@H](O)C(O)O[C@@H]7C(=O)O)O[C@@H]6C(=O)O)O[C@@H]5C(=O)O)O[C@@H]4C(=O)O)O[C@@H]3C(=O)O)O[C@@H]2C(=O)O)[C@@H](O)[C@@H](O)[C@@H]1O (some centres unmarked) [M7]
- ΔH (TM6-N4 [2]): -4.2 ± 0.8 kcal/mol
- TΔS (TM6-N4 [2]): 5.2 kcal/mol
- ΔG (binding free energy change) (TM6-N4 [2]): -9.3 kcal/mol and -9.3 ± 0.1 kcal/mol
